Assay [1] in a line: Inhibition of LPA-induced intracellular Ca2+ concentration increase (FLIPR). The class given is cell-based. As to conditions: LPA final concentration 5 μM; rat hepatic stellate cell derived myofibroblast like clone; Fluo-3, FLIPR. The source says:
(1) Establishment of Myofibroblast Like Cell Strain Derived from Rat Hepatic Stellate Cell Fraction A stellate cell fraction was obtained from the liver of male Wistar rat according to a conventional method (European J. Biochem., 1993, vol. 213, p. 815). After subculture for several generations, the cell was cloned by limiting dilution. Well grown 24 clones that formed colonies were isolated. These clones were stained with αSMA antibody and confirmed to be all positive and to have Myofibroblast like properties. […] (2) Measurement of Cell Activation (Intracellular Ca^2+ Concentration Increasing Action)-Inhibitory Activity The above-mentioned cells were cultured overnight in a 384 well plate at 24,000 cells/well and the medium was removed. An assay buffer (0.1% BSA, 20 mM HEPES, 1×HBSS, 2.5 mM Probenecid) containing 4 μM of Fluo-3, AM (Biotium) was added, and the cells were stained at 37° C. for 1 hour. Following the buffer containing the dye reagent was removed, and an assay buffer was added, intracellular Ca^2+ concentration was measured with FLIPR (Molecular Devices). Adding a test substance and LPA at the final concentration of 5 μM, the inhibitory action of the test substance on the increase in the intracellular Ca^2+ concentration by LPA was examined. The increase in the intracellular Ca^2+ concentration by LPA addition without test substance was taken as 100%, that without the addition of LPA was taken as 0%, and the substrate's concentration (IC50) at inhibiting increase in the intracellular Ca^2+ concentration by 50% was determined.

Assay [2] concerns the target EDG2 (Homo sapiens, UniProt Q92633). As to conditions: as described in WO01/060819; cited from earlier work.
The test system of assay [3] is peripheral circulation disorder model induced by lactic acid. The settings on record: animal model of peripheral arterial obstruction; as described in WO01/060819; cited from earlier work.

SMILES strings stand for the structures.

Sequence of EDG2 (Q92633 whole entry): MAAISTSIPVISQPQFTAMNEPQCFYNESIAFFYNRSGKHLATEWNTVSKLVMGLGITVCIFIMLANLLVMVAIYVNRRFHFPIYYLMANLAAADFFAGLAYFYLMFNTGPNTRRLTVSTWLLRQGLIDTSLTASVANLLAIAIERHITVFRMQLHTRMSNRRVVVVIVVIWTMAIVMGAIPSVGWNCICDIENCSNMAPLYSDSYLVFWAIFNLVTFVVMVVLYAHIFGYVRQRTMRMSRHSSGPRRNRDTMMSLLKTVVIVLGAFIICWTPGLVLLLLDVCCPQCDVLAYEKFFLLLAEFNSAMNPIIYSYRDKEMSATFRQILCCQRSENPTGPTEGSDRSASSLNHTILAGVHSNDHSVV

The compound `CC(CCCc1ccc(-c2nocc2NC(=O)O[C@H](C)c2ccccc2Cl)cc1)C(=O)O` (stereo partly drawn) [Compound 34, 5-(4-{4-[(1R)-1-(2-chlorophenyl)ethoxycarbonylamino]-3-isoxazolyl}phenyl)-2-methylpentanoic acid] displayed an IC50 in assay [1] of 102 nM.

Take `COC(=O)CCSCc1ccc(-c2onc(C)c2NC(=O)OC(C)c2ccccc2Cl)cc1` (stereo not shown) [Example 115, methyl 3-([4-[4-([[1-(2-chlorophenyl)ethoxy]carbonyl]amino)-3-methyl-5-isoxazolyl]benzyl]-sulfanyl)propanoate]: the IC50 in assay [1] turned out to be 836 nM. Besides, in assay [2], the EDG2 antagonistic action result is reported as “strong EDG2 antagonistic action”. Further, the “action in peripheral circulation disorder model induced by lactic acid” value in assay [3] is given as “improving action”.

By IC50 is commonly meant the concentration needed to halve the response being measured.
